Experimental data: ChEMBL document CHEMBL1201862, “PubChem BioAssay data set” (2004)
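A five-concentration, 48-hour dose response in 96-well plates underlies each endpoint, interpolated linearly between surrounding concentrations. GI50 is the concentration that inhibits growth by half.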 Calls of active or inactive are those of the source. Cut-off read from the data, not from the text of the source: active = GI50 up to about 1.1 µM and inactive = higher.

Columns and labels:
Test in all cases: NCI-60 cell line screen, 48 h
KM-20L2 = system: KM-20L2
HOP-18 = system: HOP-18
M14 = system: M14
NCI-H460 = system: NCI-H460
UACC-257 = system: UACC-257
SK-MEL-28 = system: SK-MEL-28
SK-OV-3 = system: SK-OV-3
SF-268 = system: SF-268
SW-620 = system: SW-620
NCI-H23 = system: NCI-H23
KM12 = system: KM12
NCI-H522 = system: NCI-H522
MOLT-4 = system: MOLT-4
CCRF-CEM = system: CCRF-CEM
SF-539 = system: SF-539
TK-10 = system: TK-10
RPMI-8226 = system: RPMI-8226
SN12C = system: SN12C
K562 = system: K562
SF-295 = system: SF-295
NCI-H226 = system: NCI-H226
UO-31 = system: UO-31
HOP-62 = system: HOP-62
A498 = system: A498
786-0 = system: 786-0
OVCAR-3 = system: OVCAR-3
HT-29 = system: HT-29
SK-MEL-2 = system: SK-MEL-2
COLO 205 = system: COLO 205
A549 = system: A549
OVCAR-8 = system: OVCAR-8
Malme-3M = system: Malme-3M
U-251 = system: U-251
HCC 2998 = system: HCC 2998
RXF 393 = system: RXF 393
LOX IMVI = system: LOX IMVI
DMS-273 = system: DMS-273
IGROV-1 = system: IGROV-1
LXFL 529 = system: LXFL 529
EKVX = system: EKVX
SK-MEL-5 = system: SK-MEL-5
CAKI-1 = system: CAKI-1
HCT-15 = system: HCT-15
XF498 = system: XF498
OVCAR-4 = system: OVCAR-4
SNB-19 = system: SNB-19
DMS-114 = system: DMS-114
OVCAR-5 = system: OVCAR-5
SNB-75 = system: SNB-75
DLD-1 = system: DLD-1
HL-60 = system: HL-60
UACC-62 = system: UACC-62
ACHN = system: ACHN
RXF 631 = system: RXF 631
MCF7 = system: MCF7
Hs-578T = system: Hs-578T
BT-549 = system: BT-549
HOP-92 = system: HOP-92
HCT-116 = system: HCT-116
T47D = system: T47D
MDA-MB-435 = system: MDA-MB-435
MDA-MB-231 = system: MDA-MB-231
M19-MEL = system: M19-MEL
MDA-N = system: MDA-N
DU-145 = system: DU-145
SR = system: SR
PC-3 = system: PC-3
NCI/ADR-RES = system: NCI/ADR-RES

Fc1ccccc1C1CC(C(c2ccccc2)c2ccccc2)=Nc2ccccc2S1 (configuration not stated)
GI50 (KM-20L2): 6530 nM (inactive)
GI50 (HOP-18): 16200 nM (inactive)
GI50 (M14): 11900 nM (inactive)
GI50 (NCI-H460): 4890 nM (inactive)
GI50 (UACC-257): 12900 nM (inactive)
GI50 (SK-MEL-28): 12600 nM (inactive)
GI50 (SK-OV-3): 26900 nM (inactive)
GI50 (SF-268): 11400 nM (inactive)
GI50 (SW-620): 6040 nM (inactive)
GI50 (NCI-H23): 5890 nM (inactive)
GI50 (KM12): 5380 nM (inactive)
GI50 (NCI-H522): 6790 nM (inactive)
GI50 (MOLT-4): 2710 nM (inactive)
GI50 (CCRF-CEM): 1910 nM (inactive)
GI50 (SF-539): 21900 nM (inactive)
GI50 (TK-10): 10700 nM (inactive)
GI50 (RPMI-8226): 3600 nM (inactive)
GI50 (SN12C): 10200 nM (inactive)
GI50 (K562): 2730 nM (inactive)
GI50 (SF-295): 9480 nM (inactive)
GI50 (NCI-H226): 13000 nM (inactive)
GI50 (UO-31): 14000 nM (inactive)
GI50 (HOP-62): 12600 nM (inactive)
GI50 (A498): 6530 nM (inactive)
GI50 (786-0): 4230 nM (inactive)
GI50 (OVCAR-3): 11300 nM (inactive)
GI50 (HT-29): 5610 nM (inactive)
GI50 (SK-MEL-2): 7890 nM (inactive)
GI50 (COLO 205): 14800 nM (inactive)
GI50 (A549): 11400 nM (inactive)
GI50 (OVCAR-8): 7710 nM (inactive)
GI50 (Malme-3M): 16000 nM (inactive)
GI50 (U-251): 12600 nM (inactive)
GI50 (HCC 2998): 5350 nM (inactive)
GI50 (RXF 393): 4630 nM (inactive)
GI50 (LOX IMVI): 5780 nM (inactive)
GI50 (DMS-273): 4760 nM (inactive)
GI50 (IGROV-1): 6950 nM (inactive)
GI50 (LXFL 529): 4230 nM (inactive)
GI50 (EKVX): 10300 nM (inactive)
GI50 (SK-MEL-5): 11200 nM (inactive)
GI50 (CAKI-1): 6250 nM (inactive)
GI50 (HCT-15): 5780 nM
GI50 (XF498): 13700 nM (inactive)
GI50 (OVCAR-4): 10900 nM (inactive)
GI50 (SNB-19): 14400 nM (inactive)
GI50 (DMS-114): 6850 nM (inactive)
GI50 (OVCAR-5): 12100 nM (inactive)
GI50 (SNB-75): 1130 nM (inactive)
GI50 (DLD-1): 5410 nM (inactive)
GI50 (HL-60): 2550 nM (inactive)
GI50 (UACC-62): 3270 nM (inactive)
GI50 (ACHN): 11700 nM (inactive)
GI50 (RXF 631): 8040 nM (inactive)

O=C(NC(=O)c1ccccc1[N+](=O)[O-])Nc1ccc(Oc2ncc(Br)cn2)c(Cl)c1
GI50 (MCF7): 26.5 nM (active)
GI50 (KM-20L2): 22 nM (active)
GI50 (HOP-18): 64 nM (active)
GI50 (M14): < 16 nM (active)
GI50 (Hs-578T): 34.2 nM (active)
GI50 (NCI-H460): 25.2 nM (active)
GI50 (BT-549): 70.3 nM (active)
GI50 (UACC-257): 23.7 nM (active)
GI50 (SK-MEL-28): 28.6 nM (active)
GI50 (SK-OV-3): 26.9 nM (active)
GI50 (SF-268): 47.8 nM (active)
GI50 (SW-620): 23.7 nM (active)
GI50 (NCI-H23): 38.9 nM (active)
GI50 (KM12): 23 nM (active)
GI50 (NCI-H522): 13.1 nM (active)
GI50 (MOLT-4): 33 nM (active)
GI50 (CCRF-CEM): 28.4 nM (active)
GI50 (SF-539): 20.3 nM (active)
GI50 (HOP-92): 49.5 nM (active)
GI50 (TK-10): 36.2 nM (active)
GI50 (RPMI-8226): 25.6 nM (active)
GI50 (HCT-116): 25.5 nM (active)
GI50 (SN12C): 39.8 nM (active)
GI50 (K562): 19.4 nM (active)
GI50 (SF-295): 13.7 nM (active)
GI50 (T47D): 87.1 nM (active)
GI50 (NCI-H226): 14.8 nM (active)
GI50 (UO-31): 28.1 nM (active)
GI50 (HOP-62): 24.9 nM (active)
GI50 (A498): 22.5 nM (active)
GI50 (786-0): 21.5 nM (active)
GI50 (OVCAR-3): 25.2 nM (active)
GI50 (MDA-MB-435): 8.02 nM (active)
GI50 (HT-29): 17.5 nM (active)
GI50 (SK-MEL-2): 21.3 nM (active)
GI50 (MDA-MB-231): 46.9 nM (active)
GI50 (COLO 205): 46 nM (active)
GI50 (A549): 42.8 nM (active)
GI50 (M19-MEL): 19.6 nM (active)
GI50 (OVCAR-8): 30.1 nM (active)
GI50 (MDA-N): 8.57 nM (active)
GI50 (Malme-3M): 13.8 nM (active)
GI50 (U-251): 42.7 nM (active)
GI50 (HCC 2998): 87.5 nM (active)
GI50 (RXF 393): 7.71 nM (active)
GI50 (DU-145): 31.8 nM (active)
GI50 (LOX IMVI): 52.8 nM (active)
GI50 (SR): 29.6 nM (active)
GI50 (DMS-273): 16.5 nM (active)
GI50 (IGROV-1): 25.8 nM (active)
GI50 (LXFL 529): 30.2 nM (active)
GI50 (EKVX): 34.8 nM (active)
GI50 (SK-MEL-5): 22.4 nM (active)
GI50 (CAKI-1): 19.4 nM (active)
GI50 (HCT-15): 44.1 nM
GI50 (XF498): 7.23 nM (active)
GI50 (OVCAR-4): 28.4 nM (active)
GI50 (SNB-19): 27.8 nM (active)
GI50 (DMS-114): < 18.4 nM (active)
GI50 (OVCAR-5): 20.7 nM (active)
GI50 (SNB-75): 23.1 nM (active)
GI50 (DLD-1): 14.8 nM (active)
GI50 (PC-3): 29 nM (active)
GI50 (HL-60): 3.83 nM (active)
GI50 (UACC-62): 19 nM (active)
GI50 (ACHN): 50.8 nM (active)
GI50 (RXF 631): 28.4 nM (active)
GI50 (NCI/ADR-RES): 19.8 nM (active)
